Data published in patent US20160186068A1, “METHODS AND SYSTEMS FOR PROCESSING CELLULOSIC BIOMASS” (SHELL OIL COMPANY, priority 2014, published 2016).
Where two headings read alike, the source gives them in different places.

Columns and labels:
[1] = MIBC re-extraction (step #2) of aqueous lower layer from initial MIBC extraction (Example 4); type: physicochemical; conditions: for Extr #2 % extract / Extr #2 K UL/LL: MIBC re-extraction (step #2); for Extr #2 K UL/LL / Extr #2 LL-wt %: one part MIBC by weight, 25° C.; for Extr #2 LL-wt %: lower layer after MIBC re-extraction (step #2); for extraction from aqueous lower layer by MIBC (in words): MIBC re-extraction, GC results
[2] = Comparison of extraction solvents on simulated reaction product mixture (Examples 5A-5D); conditions: for Kow: one part by weight, 2 weight percent each component in water, 25° C.
Experimental: The reaction product mixture was extracted with one part of by weight solvent, with mixing for a minimum of three minutes, followed by phase separation overnight at 25° C.

[3] = MIBC re-extraction (step #2) of aqueous lower layer from initial MIBC extraction (Example 4); type: physicochemical; conditions: for Extr #1 K UL/LL: initial (step #1) MIBC extraction; for Extr #1 LL-wt %: lower aqueous layer after initial (step #1) MIBC extraction
Experimental: One part of the upper organic-rich upper layer from Example 3 was removed prior to distillation, extracted with one part by weight of MIBC solvent, by shaking for 3 minutes in a vial via mechanical shaker, followed by allowing to phase separate overnight at 25° C.
Extraction efficiency as measured by the partition coefficient K increased with increasing carbon number for the light alcohol. Glycols, including ethylene glycol (EG) and propylene glycol (PG) were not extracted.

[4] = MIBC extraction of reactor product: partition between upper MIBC-rich organic layer and lower aqueous layer (Example 3)
Experimental: (§1) The injector temperature was set at 250° C., and the detector temperature was set at 300° C.
Partition coefficients for the concentration by weigh in the upper MIBC-rich organic layer, vs. the lower aqueous layer, are reported in Table 2.

[5] = Solubility of MPP in deionized water (Example 5E solution); type: physicochemical; conditions: 1 wt % solution, room temperature, judged by turbidity
[6] = Toluene extraction of reactor product: partitioning between upper organic and lower aqueous phases (Example 2); conditions: for Kow UL/LL, partition coefficients for toluene extraction: toluene extractant, stirred at 150° C. for 2 hours, upper toluene-rich phase / lower aqueous-rich phase
Experimental: as §1
Reaction cycles entailed 1 hour at 160° C., followed by 1 hour at 190° C., followed by 3 hours at 240° C. Six cycles of wood addition were effected, which simulated the first hydrothermal reaction. This was followed by heating overnight at 270° C. under 52 bar of H2, which simulated the second hydrothermal reaction to further hydrotreat and complete conversion of various compounds in the first reaction product, which the examples may refer to as intermediates.
Stirring was then stopped, and the reactor allowed to cool. […] Catalyst was left on the reactor bottom.

[7] = Extraction of phenols from 1% aqueous solution with toluene or heptane (Examples 5E-5H)
[8] = Ex 5A, toluene extraction solvent
[9] = Ex 5C, 1:1 MPP/MIBC extraction solvent
[10] = Ex 5D, meta-cresol extraction solvent
[11] = Example 5C, MPP/MIBC extraction solvent
[12] = concentration by weight in upper MIBC-rich organic layer vs. lower aqueous layer
[13] = Example 5B, MPP as extraction solvent
[14] = Example 5F, 1% MPP in water extracted with heptane
[15] = Example 5D, m-cresol as extraction solvent
[16] = Example 5G, 1% solution of m-cresol extracted with toluene

1-propanol [PrOH]
Extr #2 % extract [1]: 71% | Extr #2 K UL/LL [1]: 1.429 | Extr #2 LL-wt % [1]: 0.10 wt %

OCCO [EG, ethylene glycol]
Kow [2, 8]: 0.000 | Kow ([2]; Ex 5B, MPP extraction solvent): 0.037 | Kow [2, 9]: 0.079 | Kow [2, 10]: 0.036 | Extr #1 K UL/LL [3]: 0.37 | Extr #1 LL-wt % [3]: 0.20 wt % | Extr #2 % extract [1]: −43% | Extr #2 K UL/LL [1]: 0.045 | extraction from aqueous lower layer by MIBC (in words) [1]: not extracted | Extr #2 LL-wt % [1]: 0.29 wt %

CCO [EtOH, ethanol]
Extr #2 % extract [1]: 39% | Extr #2 LL-wt % [1]: 0.16 wt %

CC(C)CC(C)O (centres unmarked) [MIBC, methylisobutylcarbinol]
MIBC extraction partition coefficient [4]: 48.12 | co-solvent lost to aqueous [2, 11]: 1%

CCCc1ccc(O)c(OC)c1 [MPP, 2-methoxy-4-propylphenol]
MIBC extraction partition coefficient [4, 12]: >50 | amount lost to the aqueous phase [2, 13]: 0.15 wt % | apparent partition coefficient between organic and aqueous layers [2, 13]: 612 | extractant lost to the aqueous phase [2, 11]: 0.12 wt % | measured in the final organic extract [2, 11]: 55 wt % | oil/water partition coefficient [2, 11]: 462 | solubility in deionized water [5]: only partial solubility | Kow UL/LL, partition coefficients for toluene extraction [6]: 33.59 | partition coefficient, weight percent in organic layer extract vs. remaining lower layer aqueous fraction ([7]; Example 5E, 1 wt % MPP in deionized water extracted with one part toluene): 161.7 | recovered by extraction from the aqueous phase ([7]; Example 5E, MPP as a 1% solution, toluene as solvent): More than 99% | apparent partition coefficient [7, 14]: 76 | removed down to (residual in water) [7, 14]: 0.08 wt %

CO [MeOH, Methanol]
MIBC extraction partition coefficient [4, 12]: 0.30 | Extr #1 LL-wt % [3]: 0.18 wt % | Extr #2 % extract [1]: 16% | Extr #2 LL-wt % [1]: 0.15 wt %

CC(O)CO (centres unmarked) [PG, 1,2-propylene glycol]
MIBC extraction partition coefficient [4]: 0.33 | Kow [2, 8]: 0.013 | Kow ([2]; Ex 5B, MPP extraction solvent): 0.084 | Kow [2, 9]: 0.042 | Kow [2, 10]: 0.197 | Extr #1 K UL/LL [3]: 0.33 | Extr #1 LL-wt % [3]: 0.38 wt % | Extr #2 % extract [1]: −30% | Extr #2 K UL/LL [1]: 0.294 | extraction from aqueous lower layer by MIBC (in words) [1]: not extracted | Extr #2 LL-wt % [1]: 0.49 wt %

Cc1cccc(O)c1 [cresol, meta-cresol]
apparent partition coefficient between oil and water [2, 15]: 39 | lost to the aqueous layer [2, 15]: 2.7 wt % | apparent partition coefficient between organic and aqueous phases [7, 16]: 20.8 | residual left in the aqueous layer [7, 16]: 0.05 wt % | remained with the aqueous layer ([7]; Example 5H, 1% m-cresol solution extracted with heptane): 0.56 wt %

CCCCCCC [heptane]
extraction solvent lost to the aqueous phase ([7]; Example 5F, heptane extraction): 0.07 wt % | extraction solvent lost to the aqueous layer ([7]; Example 5H, heptane extraction): 0.015%

Cc1ccccc1 [toluene]
extraction solvent lost to the aqueous phase ([7]; Example 5G, toluene extraction): 0.04 wt % | loss of toluene extraction solvent ([7]; toluene extraction, lost to the lower layer): less than 1%

Cc1cccc(C)c1O [xylenol, 2,6-xylenol]
MIBC extraction partition coefficient [4, 12]: 87.26 | collected in the upper layer (toluene phase) distillation, relative to the bottom phase distillation ([6]; after toluene extraction, separate distillation of phases): 99.5% | Kow UL/LL, partition coefficients for toluene extraction [6]: 51.79
